Assay results: patent US9775844B2, “Heterocyclic compounds and uses thereof” (Infinity Pharmaceuticals, Inc., priority 2014, dated 2017)

Experiments:
[1] = Metabolic stability (microsome stability assay); assay type: in vitro ADME
Experimental: The stability of one or more subject compounds is determined according to standard procedures known in the art. For example, stability of one or more subject compounds is established by an in vitro assay. For example, an in vitro microsome stability assay is established that measures stability of one or more subject compounds when reacting with mouse, rat or human microsomes from liver. The microsome reaction with compounds is performed in 1.5 mL Eppendorf tube. Each tube contains 0.1 μL of 10.0 mg/mL NADPH; 75 μL of 20.0 mg/mL mouse, rat or human liver microsome; […] of 0.2 M phosphate buffer, and 425 μL of ddH2O. Negative control (without NADPH) tube contains 75 μL of 20.0 mg/mL mouse, rat or human liver microsome; […] of 0.2 M phosphate buffer, and 525 μL of ddH2O. The reaction is started by adding 1.0 μL of 10.0 mM tested compound. The reaction tubes are incubated at 37° C. 100 μL sample is collected into new Eppendorf tube containing 300 μL cold methanol at 0, 5, 10, 15, 30 and 60 minutes of reaction. Samples are centrifuged at 15,000 rpm to remove protein. Supernatant of centrifuged sample is transferred to new tube. Concentration of stable compound after reaction with microsome in the supernatant is measured by Liquid Chromatography/Mass Spectrometry (LC-MS).
These properties indicate the compound's suitability for in vivo administration.

[2] = system: KPC Pancreatic Cancer cells; test: RNA expression profiling (TLDA) of KPC pancreatic cancer tumors; assay type: in vivo, mouse
Experimental: RNA expression profiling was performed for immuno-phenotyping with a Taqman low density array (TLDA).
For mouse tumors, snap frozen samples were powdered with a Genogrinder at liquid nitrogen temperatures and RNA was isolated with Trizol. Next, the sample was cleaned-up using Qiashredder, and then using a RNeasy kit.
CT values were used for analysis. For each sample Si and each gene, the following values were calculated: dCT(Si,gene)=CT(Si,gene)−CT(Si,ACTB) ddCT(Si,gene)=dCT(Si,gene)−median(dCT(vehicle treated samples, gene)) RQ(Si, gene)=2^(−ddCT(Si,gene))
This produced a matrix of RQ values: 48 genes (rows)×39 samples (cols).
The analysis used R package Non-negative Matrix Factorization (NMF) with rank=3 and the “lee” algorithm.

[3] = system: bone marrow macrophages; test: RANKL driven differentiation of osteoclasts from bone marrow macrophages; assay type: cell-based
[4] = system: GL261-Luc; test: GL261-Luc murine glioblastoma subcutaneous model; assay type: in vivo, mouse; settings: 15 mg/kg QD, PO
[5] = Pharmacokinetics in dog, oral; assay type: in vivo; settings: 5 mg/kg oral
Text: Compound BB's oral exposure is high in rat, dog and monkey. Good oral bioavailability and low clearance in rodent and non-rodent animal species results in high oral exposure.

[6] = system: CXCL12 stimulated pAKT in T cells and monocytes; test: Ex vivo whole blood CXCL12 stimulation of phospho-AKT, LLC-bearing mice; assay type: in vivo, mouse; settings: 12 days QD PO, 2 h post dose
Experimental: C57 BL/6 Albino mice were implanted with 1×10^6 cells in a SC injection in the hind flank. The cell implant material was generated from brei that was passaged from mouse to mouse. Treatment started when tumors were between 160-180 mm^3 Mice were dosed for 12 days, QD, PO with vehicle, 15, 7.5 or 3 mg/kg. On day 12 mice were dosed and terminal blood was collected 2 h post dose by cardiac stick collection. Blood was placed in EDTA K2 collection tube and stored at room temp for PD analysis.
Blood from each animal was aliquotted into 2 plates and warmed to 37° C. degrees. PBS was added to one plate as an unstimulated control. Murine CXCL12/SDF-1 was added to the second plate to a final concentration of 800 ng/mL and plate was returned to the 37° C. degree block. After 2 minutes of incubation, blood was lysed and fixed using paraformaldehyde. Samples were washed and frozen until flow cytometric analysis. T cells were gated using an antibody to CD3 and monocytes were gated as LY6G^− LY6C^high. Intracellular pAKT […] was measured and percent positive was used for graphing.

[7] = system: MC38 tumor cells; test: MC38 colon cancer model; assay type: in vivo, mouse
Experimental: In this model, a syngeneic colon cancer cell line is run subcutaneously. The experimental setup was as follows.
The cell injection volume was 0.05 ml per mouse. When tumors reached an average size of 80-100 mm^3, a pair match was made and treatment began. The tumor was measured by caliper biweekly.
The dosing volume was 5 mL/kg.
For all animals, blood was collected by terminal cardiac puncture under isoflurane anesthesia. The blood was processed for plasma. In addition, tumor samples were collected.
At study end, tumors were isolated, fixed in 10% neutral buffered formalin and embedded in paraffin for histologic analysis. […] T-cells within the tumor sections were identified utilizing a CD3-specific antibody via automated immunohistochemistry equipment (Ventana). Once stained, slides were digitalized via Aperio slide scanning equipment. Next, stained tumor sections were quantified via Definians software to assess the percentage of CD3 positive cells within each tumor.

[8] = system: tumor-associated myeloid cells in LLC tumor brei; test: Flow cytometry of tumor-associated myeloid cells, LLC tumor brei model; assay type: in vivo, mouse
Experimental: Flow cytometry was performed to obtain a more extensive cellular subset analysis. In particular, the study examined T cell vs. Myeloid cells, Myeloid cell subsets, Regulatory vs. effector T cells, and Tumor markers vs. WBC (e.g., PD-L1 expression on tumor).
Different populations of tumor-associated myeloid cells can be identified by flow cytometry, e.g., monocytic immature myeloid cells (iMC),Granulocytic iMCs/Neutrophils, Tumor Associated Macrophages (TAMs), and Granulocytic MDSCs. The different populations, and panels for detecting MDSCs, are described in Cancer Discovery 2011; 1:54-67. Tumors may vary in their myeloid cell composition.

[9] = system: phospho-AKT in monocytes; test: Ex vivo whole blood stimulation of phospho-AKT in monocytes of LLC-bearing mice; settings: LLC-bearing mice treated with compound
[10] = system: phospho-AKT in T cells; test: Ex vivo whole blood stimulation of phospho-AKT in T cells of LLC-bearing mice; settings: LLC-bearing mice treated with compound
[11] = system: LLC tumor brei; test: LLC tumor brei model with or without cyclophosphamide (tumor growth, FACS); assay type: in vivo, mouse
Experimental: In this experiment, treatment began when tumors reached approx. 150 mm^3—around day 12. Caliper and xenogen images were monitored. Treatment groups n=13-15/group. […] Samples for FACs analysis were collected on day 23 post implant. Using FACS, cells were assayed for the level of CD11b and Gr-1.

[12] = Hepatocyte stability (Hep t1/2); assay type: in vitro ADME; settings: hepatocytes, all species (incl rat); read-out: M, C, D, H Hep (t1/2, min)
[13] = Dose-exposure proportionality; settings: in vivo
[14] = GSH Adduct Formation; assay type: in vitro ADME

C[C@H](NC(=O)c1c(N)nn2cccnc12)c1cc2cccc(C#Cc3cnn(C)c3)c2c(=O)n1-c1ccccc1 [Compound BB]
metabolic stability [1]: high metabolic stability
half-life at 20 µM ([1]; liver microsomes, microsomes, all species (incl rat)): > 120 min
M2 macrophage markers VEGF and ARG-1 (RNA) ([2]; 3 mg/kg, with or without PDL-1 antibody): trended towards reduction
T regulatory and T effector genes (RNA) ([2]; alone): trend in lower T regulatory and T effector genes
RANKL driven differentiation of osteoclasts [3]: prevents
total flux, GL-261 syngeneic glioma model [4]: reduced the total flux
tumor volume, GL-261 syngeneic glioma model [4]: reduced tumor volume
oral exposure (plasma concentrations within 24 hours) [5]: high
ex vivo whole blood CXCL12 stimulation of phospho-AKT in T cells [6]: inhibits
ex vivo whole blood CXCL12 stimulation of phospho-AKT in monocytes [6]: inhibits
intratumoral CD3+ T cells ([7]; MC38 tumors vs vehicle, IHC): significantly more intratumoral CD3+T cells
tumor growth, MC38 colon cancer model ([7]; monotherapy, FIG. 29A): significantly inhibited tumor growth
number of infiltrating TAMs ([8]; FIG. 38A): decreased
CD206 staining (M2 polarized suppressive macrophages) ([8]; FIG. 39): reduced
ex vivo whole blood stimulation of phospho-AKT in monocytes [9]: inhibits
ex vivo whole blood stimulation of phospho-AKT in T cells [10]: inhibits
tumor growth, LLC tumor brei model ([11]; Compound BB 15 mg/kg QD PO, cyclophosphamide 50 mg/kg EOD IP): reduced tumor growth
CD206 population in LLC tumors (FACS) ([11]; Compound BB PO QD alone or with cyclophosphamide): decrease in the CD206 population
half-life [12]: > 240 min
dose-exposure proportionality [13]: exhibits dose-exposure proportionality
GSH Adduct Formation [14]: Neg
